Source: patent US7504497B2, “Orally bioavailable compounds and methods for inhibiting platelet aggregation” (Inspire Pharmaceuticals, Inc., priority 2005, dated 2009)
pIC50: −log10 of the molar value. Read-outs that look alike come from different tables or passages of the source. One block for each molecule: values may come before it.

Key:
washed human platelets = test: Inhibition of ADP-induced platelet aggregation in washed human platelets; assay type: cell-based; conditions: for pIC50: ADP agonist challenge typically 1-5 μM, average of two experiments or more; for % inhibition of ADP-induced platelet aggregation at fixed concentration: antagonist at 0.3 μM, ADP typically 1-5 μM
Method: Isolation of Platelets: Human blood is obtained from informed healthy adult volunteers. Blood is collected into one-sixth volume of acid/citrate/dextrose (ACD) buffer (85 mM sodium citrate, 65 mM citric acid, and 110 mM glucose). Collected blood is placed in a water bath at 37° C. for 30 minutes. Blood is then centrifuged at 275×g for 16 minutes at room temperature and the platelet-rich plasma is removed and centrifuged at 2200×g for 13 minutes at room temperature. The platelet pellet is resuspended in 40 mL of HEPES-buffered Tyrode's solution (137 mM NaCl, 2.7 mM KCl, 1 mM MgCl2, 2 mM CaCl2, 12 mM NaHCO3, 0.36 mM NaH2PO4, 5.5 mM glucose, 5 mM HEPES pH 7.4, 0.35% bovine serum albumin or 0.35% human serum albumin) containing 10 U/mL heparin and 5 μM (final concentration) prostaglandin I2 (PGI2). The platelet suspension is incubated in a 37° C. water bath for 10 minutes and then 5 μM (final conc.) PGI2 is added just before centrifugation at 1900×g for 8 minutes. The resulting pellet is resuspended in 40 mL of HEPES-buffered Tyrode's solution containing 5 μM (final concentration) PGI2 and then is incubated for 10 minutes in a 37° C. water bath. A small aliquot (500 μL) of the platelet suspension is removed for platelet counting. Prior to centrifugation 5 μM (final concentration) PGI2 is added to the suspension and then the suspension is centrifuged at 1900×g for 8 minutes. The pellet is resuspended at a density of 5×10^8 cells/mL in HEPES-buffered Tyrode's solution containing 0.05 U/mL apyrase. Aggregation Studies: ADP-induced platelet aggregation is determined by measuring the transmission of light through a 0.5 ml suspension of stirred (1000 rpm) washed platelets in a lumi-aggregometer at 37° C. (Chrono-Log Corp. Havertown, Pa.). The baseline of the instrument is set using 0.5 ml of Hepes-buffered Tyrode's solution. Prior to aggregation measurements, the platelet suspension is supplemented with 1 mg/ml fibrinogen. Platelet aggregation is initiated by the addition of indicated concentrations of ADP or other agonists, and the light transmission is continuously recorded for at least 8 min. When inhibitors of platelet aggregation are tested, platelets are incubated for 2 min in the presence of indicated concentrations of inhibitor before addition of ADP or other agonists, and the response is recorded for at least 8 min. The potency of agonists and inhibitors of platelet aggregation is calculated from both the rate of aggregation and the maximal extent of aggregation obtained for each determination by fitting the data to a four-parameter logistic equation using the GraphPad software package (GraphPad Corp. San Diego, Calif.).
IC50 values represent the concentration of antagonist necessary to inhibit by 50% the aggregation elicited by a given concentration of ADP.
The agonist challenge (ADP) was typically in the range of 1-5 μM. Data are presented in μM and are from the average of two experiments or more.

[1] = Oral bioavailability (%F) following oral vs intravenous administration in rats; assay type: in vivo, male Sprague-Dawley rats; conditions: rat; for bioavailability: male, Sprague-Dawley, plasma, po
Method: These compounds were administered intravenously and orally to compare the extent of absorption by the oral route to the intravenous route and evaluate their ability to inhibit platelet aggregation in vivo. The following brief protocol describes the experiment methodology.
While anesthetized by an inhaled anesthetic, male Sprague-Dawley rats were surgically cannulated in the jugular vein for blood sample collection in order to assess systemic exposure of the compound after oral or intravenous administration and platelet aggregation. For the oral studies, compounds were administered as suspensions of the free acid or sodium salt forms, or as solutions of the sodium salt forms. Animals were allowed 48 hours to recover prior to dose administration.
A blood samples was taken immediately prior to compound administration. This sample was used to assess the baseline platelet aggregation and potential drug interference in the LC/MS/MS analysis. Compound was administered by either oral gavage or tail vein and blood samples were withdrawn for plasma analysis at up to 12 time points ranging from 5 min to 24 hours following compound administration. LC/MS/MS was used to measure the amount of compound in the plasma after both routes of administration and the plasma exposure was compared between the oral and IV routes (%F). %F is the % of the administered dose that is absorbed after oral administration. […] The in vivo platelet aggregation data that was acquired at similar time points was then compared to the plasma concentration and a calculation of the concentration needed to inhibit platelet aggregation was made.
The bioavailability of certain compounds of the present invention was determined following oral administration in rats, according to the protocol of Example 5. The compounds were administered as either a suspension of the free acid forms, a suspension of the sodium salt forms, or as a solution of the sodium salt forms.

[2] = Homo sapiens, Platelet, read-out: PLATELET DATA IC50 Washed Platelets, washed human platelets
[3] = read-out: PLATELET DATA IC50 Washed Platelets, washed human platelets
[4] = administered as solution of the sodium salt form, read-out: % F, salt solution
[5] = administered as suspension of the free acid form, read-out: % F, free acid suspension
[6] = administered as suspension of the sodium salt form, read-out: % F, salt suspension

pIC50 (washed human platelets; [2]): 6.55
Structure (SMILES): CCNC(=O)Nc1ncnc2c1ncn2C1OC(COc2c(OC)cccc2C(=O)O)C2O[C@H](/C=C/c3ccccc3)OC21 (some centres unmarked) [Compound 2]

pIC50 (washed human platelets; [2]): > 7.00
pIC50 (washed human platelets; [3]): 7.05
Structure (SMILES): CCNC(=O)Nc1ncnc2c1ncn2C1OC(COc2ccc(F)cc2C(=O)O)C2O[C@H](c3ccc(F)cc3)OC21 (some centres unmarked) [Compound 13]

pIC50 (washed human platelets; [2]): 6.98
Structure (SMILES): CCNC(=O)Nc1ncnc2c1ncn2C1OC(COc2ccc(F)cc2C(=O)O)C2O[C@H](/C=C/c3ccccc3)OC21 (some centres unmarked) [Compound 4]

pIC50 (washed human platelets; [2]): 6.39
Structure (SMILES): CCNC(=O)Nc1ncnc2c1ncn2C1OC(COc2cc(OC)ccc2C(=O)O)C2O[C@H](/C=C/c3ccccc3)OC21 (some centres unmarked) [Compound 3]

pIC50 (washed human platelets; [2]): 6.27
Structure (SMILES): CCNC(=O)Nc1ncnc2c1ncn2C1OC(COc2ccc(C)cc2C(=O)O)C2O[C@H](/C=C/c3ccccc3)OC21 (some centres unmarked) [Compound 5]

pIC50 (washed human platelets; [2]): 6.50
bioavailability [1, 4]: ~39%
bioavailability [1, 5]: 8 to 13%
bioavailability following oral administration (in words) [1]: high bioavailability
% F, free acid suspension ([1]; administered as suspension of the free acid form): 8.7-13.1%
Structure (SMILES): CCNC(=O)Nc1ncnc2c1ncn2C1OC(COc2ccccc2C(=O)O)C2O[C@H](/C=C/c3ccccc3)OC21 (some centres unmarked) [Compound 1]

pIC50 (washed human platelets; [2]): 6.53
Structure (SMILES): CCNC(=O)Nc1ncnc2c1ncn2C1OC(COc2ccccc2CC(=O)O)C2O[C@H](/C=C/c3ccccc3)OC21 (some centres unmarked) [Compound 6]

pIC50 (washed human platelets; [2]): 6.41
Structure (SMILES): CCNC(=O)Nc1ncnc2c1ncn2C1OC(COc2cc(F)ccc2C(=O)O)C2O[C@H](/C=C/c3ccccc3)OC21 (some centres unmarked) [Compound 7]

pIC50 (washed human platelets; [2]): 6.13
Structure (SMILES): CCNC(=O)Nc1ncnc2c1ncn2C1OC(COc2ccc(OC)cc2C(=O)O)C2O[C@H](/C=C/c3ccccc3)OC21 (some centres unmarked) [Compound 9]

pIC50 (washed human platelets; [2]): 6.87
Structure (SMILES): CCNC(=O)Nc1ncnc2c1ncn2C1OC(COc2cccc(F)c2C(=O)O)C2OC(/C=C/c3ccccc3)OC21 (centres unmarked) [Compound 8]

pIC50 (washed human platelets; [2]): 6.70
Structure (SMILES): CCNC(=O)Nc1ncnc2c1ncn2C1OC(COc2ccccc2C(=O)O)C2O[C@H](c3ccc(F)cc3)OC21 (some centres unmarked) [Compound 12]

pIC50 (washed human platelets; [2]): 6.72
bioavailability [1, 4]: ~53%
bioavailability [1, 5]: 14.3 to 14.6%
bioavailability [1, 6]: 29.5 to 29.9%
bioavailability following oral administration (in words) [1]: high bioavailability
% F, salt solution ([1]; administered as solution of the sodium salt form): 52.5-53.4%
Structure (SMILES): CCCNC(=O)Nc1ncnc2c1ncn2C1OC(COc2ccccc2C(=O)O)C2O[C@H](c3ccc(F)cc3)OC21 (some centres unmarked) [Compound 15]

pIC50 (washed human platelets; [2]): 6.24
Structure (SMILES): CCNC(=O)Nc1ncnc2c1ncn2C1OC(COc2ccccc2CC(=O)O)C2OC(c3ccc(F)cc3)OC21 (centres unmarked) [Compound 11]

Second part, the molecule before the results:

Structure (SMILES): COc1ccc(C(=O)O)c(OCC2OC(n3cnc4c(NC(=O)NCC5CC5)ncnc43)C3O[C@@H](c4ccc(F)cc4)OC23)c1 (some centres unmarked) [Compound 23]
pIC50 (washed human platelets; [2]): > 7.00
pIC50 (washed human platelets; [3]): 7.00

Structure (SMILES): CCCCNC(=O)Nc1ncnc2c1ncn2C1OC(COc2cc(OC)ccc2C(=O)O)C2O[C@H](c3ccc(F)cc3)OC21 (some centres unmarked) [Compound 21]
pIC50 (washed human platelets; [2]): > 7.00
pIC50 (washed human platelets; [3]): 7.06

Structure (SMILES): COc1cccc(C(=O)O)c1OCC1OC(n2cnc3c(NC(=O)NC4CC4)ncnc32)C2O[C@@H](c3ccc(F)cc3)OC12 (some centres unmarked) [Compound 33]
% inhibition of ADP-induced platelet aggregation at fixed concentration (washed human platelets; washed human platelets): 56% inh. @ 0.3 μM

Structure (SMILES): CCNC(=O)Nc1ncnc2c1ncn2C1OC(COc2cc(OC)ccc2C(=O)O)C2OC(c3ccc(F)cc3)OC21 (centres unmarked) [Compound 14, 2-[6-[6-(3-Ethyl-ureido)-purin-9-yl]-2-(4-fluoro-phenyl)-tetrahydro-furo[3,4-d][1,3]dioxol-4-ylmethoxyl]-4-methoxy-benzoic acid]
pIC50 (washed human platelets; [2]): > 7.00
pIC50 (washed human platelets; [3]): 7.02
bioavailability [1, 4]: ~44%
bioavailability [1, 6]: 21.5 to 22.1%
bioavailability following oral administration (in words) [1]: high bioavailability

Structure (SMILES): CCCNC(=O)Nc1ncnc2c1ncn2C1OC(COc2cc(OC)ccc2C(=O)O)C2O[C@H](c3ccc(F)cc3)OC21 (some centres unmarked) [Compound 20]
pIC50 (washed human platelets; [2]): > 7.00
pIC50 (washed human platelets; [3]): 7.04

Structure (SMILES): CCNC(=O)Nc1ncnc2c1ncn2C1OC(COc2ccc(OC)cc2C(=O)O)C2O[C@H](c3ccc(F)cc3)OC21 (some centres unmarked) [Compound 34]
% inhibition of ADP-induced platelet aggregation at fixed concentration (washed human platelets; washed human platelets): 52% inh. @ 0.3 μM

Structure (SMILES): CCCNC(=O)Nc1ncnc2c1ncn2C1OC(COc2cccc(F)c2C(=O)O)C2O[C@H](c3ccc(F)cc3)OC21 (some centres unmarked) [Compound 30]
% inhibition of ADP-induced platelet aggregation at fixed concentration (washed human platelets; washed human platelets): 56% inh. @ 0.3 μM

Structure (SMILES): COc1ccc(C(=O)O)c(OCC2OC(n3cnc4c(NC(=O)NC5CC5)ncnc43)C3O[C@@H](c4ccc(F)cc4)OC23)c1 (some centres unmarked) [Compound 22]
pIC50 (washed human platelets; [2]): > 7.00
pIC50 (washed human platelets; [3]): 7.00

Structure (SMILES): O=C(Nc1ncnc2c1ncn2C1OC(COc2cc(F)ccc2C(=O)O)C2O[C@H](c3ccc(F)cc3)OC21)NC1CC1 (some centres unmarked) [Compound 35]
% inhibition of ADP-induced platelet aggregation at fixed concentration (washed human platelets; washed human platelets): 61% inh. @ 0.3 μM

Structure (SMILES): CCCCNC(=O)Nc1ncnc2c1ncn2C1OC(COc2c(OC)cccc2C(=O)O)C2O[C@H](c3ccc(F)cc3)OC21 (some centres unmarked) [Compound 19]
pIC50 (washed human platelets; [2]): > 7.00
pIC50 (washed human platelets; [3]): 7.21

Structure (SMILES): CCNC(=O)Nc1ncnc2c1ncn2C1OC(COc2c(F)cccc2C(=O)O)C2O[C@H](c3ccc(F)cc3)OC21 (some centres unmarked) [Compound 25]
% inhibition of ADP-induced platelet aggregation at fixed concentration (washed human platelets; washed human platelets): 46% inh. @ 0.3 μM

Structure (SMILES): CCCNC(=O)Nc1ncnc2c1ncn2C1OC(COc2cc(F)ccc2C(=O)O)C2O[C@H](c3ccc(F)cc3)OC21 (some centres unmarked) [Compound 28]
% inhibition of ADP-induced platelet aggregation at fixed concentration (washed human platelets; washed human platelets): 64% inh. @ 0.3 μM
